“Also recorded” adds a separate entry of the source. Bridge positions count the residues as written; N and C are the ends. Square brackets hold non-standard residues; d marks the D form. Peptide text beside a SMILES is read from it. * marks the point of attachment. Ileψ(thiazoline)Cys = CC[C@H](C)[C@H](N)C1=N[C@H](C(=O)*)CS1; dOrn = NCCC[C@@H](N)C(=O)O
Experiments:
Format in all cases: cell-based
[1] = system: Escherichia coli JM109; assay: SERS monitoring of antibiotic effect on bacteria mounted on Ag/AAO substrate; settings: 10 μg/ml ampicillin for 35 min; antibiotic susceptible strain; 0.5% agarose gel; FIG. 5
Experimental: (§1) Fourteen laboratory strains, Escherichia coli JM109, Escherichia coli JM109(mutant), Enterococcus faecalis 7-18 uE, Enterococcus faecium 13631, Staphylococcus aureus 13649, Staphylococcus aureus 13615, Streptococcus agalactiae 13640, Enterococcus faecalis 13641 C2, Klebsiella pneumoniae 13641 C1, Proteus mirabilis 13621 C1, Enterobacter cloacae 13457 C2, E. coli 13594 C1, E. coli 13650, Escherichia coli JM109(mutant) and E. coli 13634 were analyzed. Bacteria were grown in 5 mL of LB broth (˜6 h) to OD600=˜0.5, washed five times with PBS, and resuspended in 0.1 ml of PBS. About 3˜5 μl of the bacteria suspension is placed on the Ag/AAO substrate. 0.5% agarose gel was used to mount the bacterial samples for inhibiting the movement of bacteria. Five antibiotics: ampicillin, bacitracin, vancomycin, tetracycline and gentamycin were used in the examples. The former three could interfere with construction of the bacterial cell wall. The last two inhibited the protein synthesis in bacteria via disrupting the binding between tRNA and ribosome.
(§2) A Jobin Yvon Raman microscope (model LabRAM HR800) was used to observe the scattering excited by a 632.8 nm He—Ne laser. The spectral data acquisition time was in the 1-10 s range and the SERS spectra were obtained with a 100× microscope objective for excitation/collection. […]

[2] = system: Enterococcus faecalis 7-18 uE; assay: SERS monitoring of antibiotic effect on drug-resistant strain; settings: 0.5% agarose gel, FIG. 11
Experimental: as §1, §2

[3] = system: Escherichia coli JM109(mutant); assay: SERS monitoring of antibiotic effect on bacteria mounted on Ag/AAO substrate; settings: 25 μg/ml bacitracin for 48 min; antibiotic susceptible strain; 0.5% agarose gel; FIG. 6
Experimental: as §1, §2

[4] = system: E. coli 13650; assay: as above; settings: 25 μg/ml gentamycin for 37 min; antibiotic susceptible strain; 0.5% agarose gel; FIG. 10
Experimental: as §1, §2

**Q.** `CC1(C)S[C@@H]2[C@H](NC(=O)[C@H](N)c3ccccc3)C(=O)N2[C@H]1C(=O)O` [ampicillin] was tested. Which “new peak in SERS spectrum compared with no treatment” value [1] did it give?
**A.** 700 cm⁻¹

**Q.** What about the “change of SERS spectrum (in words)” value ([2]; 10 μg/ml ampicillin for 35 min) of the same molecule?
**A.** No spectral changes were observed; also recorded: no changes in the spectra were observed

**Q.** What does the source list for `CC[C@H](C)[C@H](N)C1=N[C@H](C(=O)N[C@@H](CC(C)C)C(=O)N[C@H](CCC(=O)O)C(=O)N[C@H](C(=O)N[C@H]2CCCCNC(=O)[C@H](CC(N)=O)NC(=O)[C@@H](CC(=O)O)NC(=O)[C@H](Cc3cnc[nH]3)NC(=O)[C@@H](Cc3ccccc3)NC(=O)[C@H]([C@@H](C)CC)NC(=O)[C@@H](CCCN)NC2=O)[C@@H](C)CC)CS1` [bacitracin] ({Ileψ(thiazoline)Cys}-L[dE]IK[dOrn]I[dF]H[dD]N; lactam 4-C)?
**A.** new peak in SERS spectrum compared with no treatment [3]: 700 cm⁻¹; change of SERS spectrum (in words) ([2]; 25 μg/ml bacitracin for 48 min): No spectral changes were observed; also recorded: no changes in the spectra were observed

**Q.** How did the “new peaks in SERS spectrum” value [4] turn out when gentamycin was run?
**A.** 418 cm⁻¹
